Reference: US10782295B2, “Cysteine-reactive ligand discovery in proteomes” (THE SCRIPPS RESEARCH INSTITUTE, priority 2013, dated 2020)

Tests used:
[1] = target: T1, C22A-ZAK (Homo sapiens, UniProt Q9NYL2, C22A); test: ZAK in vitro kinase activity assay (MBP substrate); format: biochemical; conditions: 10 or 100 μM HNE; immunoprecipitated enzyme
T1 construct: Full-length cDNA encoding human ZAK-13 (BC001401); expressed in transfected cells
From the text: (§1) The gel signals for IA-labeling of WT-ZAK were blocked by pretreatment with HNE over a concentration range that closely matched the HNE-sensitivity profile observed for C22 in competitive isoTOP-ABPP experiments (FIG. 4b, compare to FIG. 3a). […] Considering further that C22 is predicted to reside adjacent to the ATP-binding loop of ZAK, we postulated that the HNE-induced loss of kinase activity might be due to blockade of ATP-binding.
(§2) The kinase activity assay protocol was adapted from Yu et al^5. Kinase assay buffers, Myeilin Basic Protein (MBP) substrate, and ATP stock solution were purchased from SignalChem. Radio-labeled [^33P]-ATP was purchased from PerkinElmer. 10 mg of soluble lysate of HEK-293T cells transfected with each of wild-type, C22A and K45M of ZAK were immunoprecipitated and then eluted with 2×300 μL FLAG-peptide buffer. […] The spotted P81 strips were air dried and then washed with 10 mL of 1% phosphoric acid for 3×10 min ZAK activity was measured by counting the radioactivity on the P81 paper in the presence of scintillation fluid in a scintillation counter after subtracting the value obtained from the corresponding no substrate control, and was normalized to that of ZAK-WT without HNE treatment. […]

[2] = target: T2, WT-ZAK (Homo sapiens, UniProt Q9NYL2); test: ZAK in vitro kinase activity assay (MBP substrate); format: biochemical; conditions: 10 or 100 μM HNE; immunoprecipitated enzyme
T2 construct: Full-length cDNA encoding human ZAK-13 (BC001401); expressed in transfected cells
From the text: as §1, §2

[3] = target: ZAK (Homo sapiens, UniProt Q9NYL2); test: SILAC-ABPP with acylphosphate-ATP probe; format: binding; parameters: Full-length cDNA encoding human ZAK-13 (BC001401); expressed in transfected cells; conditions: 100 μM, 30 min; ZAK-transfected HEK293T proteome
From the text: as §1
HEK-293T cells with stable expression of wild-type ZAK were passaged six times in DMEM medium minus 1-lysine and 1-arginine (Thermo) supplemented 10% dialyzed FBS (Gemini), 1% PSQ (1% vol/vol 10,000 units penicillin, 10 mg streptomycin, 29.2 mg lglutamate solution) and 100 μg/mL [^13C6, ^15N4] 1-arginineHCl and [^13C6,^15N2] 1-lysineHCl (heavy) or 1-arginineHCl and 1-lysineHCl (light) (Sigma-Aldrich). […] The trypsin digested samples were analysed by LC-MS/MS and enriched kinase peptides were identified by SEQUEST and DTASelect. The amounts of probe-labeled kinases with and without HNE treatment were quantified using the CIMAGE module that was developed for quantitative SILAC-ABPP chemoproteomic profiling. As internal controls, light and heavy proteomes were trypsin digested without probe labeling and streptavidin enrichment, and analysed by LC-MS/MS to quantify the basic level of each kinase between light and heavy samples. […]

## CCCCCC(O)/C=C/C=O (stereo not drawn) [4-HNE, 4-Hydroxynonenal]
[1]
  ZAK catalytic activity, C22A-ZAK residual activity: insensitive
[2]
  ZAK catalytic activity, WT-ZAK: inhibited
[3]
  acylphosphate-ATP probe-labeling of ZAK: profoundly reduced
